Results from ChEMBL document CHEMBL4422651, “Revisiting tubercidin against kinetoplastid parasites: Aromatic substitutions at position 7 improve activity and reduce toxicity” (Eur J Med Chem, 2019).
The source made the active and inactive calls. No cut-off for these calls is given here.

Tested on: Trypanosoma brucei brucei
Test: Antitrypanosomal activity against Trypanosoma brucei brucei Squib 427 after 48 hrs by alamar blue assay
Type: functional, organism-based
Conditions: Squib 427, 48 h
With `Nc1ncnc2c1c(-c1ccc3ccccc3c1)cn2[C@@H]1O[C@H](CO)[C@@H](O)[C@H]1O` the EC50 was 7.83 µM.
`Nc1ncnc2c1c(-c1ccc(Cl)c(Cl)c1)cn2[C@@H]1O[C@H](CO)[C@@H](O)[C@H]1O` showed an EC50 of 3.07 µM.
`Nc1ncnc2c1c(-c1ccc(F)cn1)cn2[C@@H]1O[C@H](CO)[C@@H](O)[C@H]1O` showed an EC50 of 4.77 µM.
Compound `COc1ccnc(-c2cn([C@@H]3O[C@H](CO)[C@@H](O)[C@H]3O)c3ncnc(N)c23)c1` has an EC50 of 25.5 µM.
`Nc1ncnc2c1c(-c1ccc(Cl)cc1)cn2[C@@H]1O[C@H](CO)[C@@H](O)[C@H]1O` gave an EC50 of 7.58 µM.
`Nc1ncnc2c1c(-c1cc(Cl)cc(Cl)c1)cn2[C@@H]1O[C@H](CO)[C@@H](O)[C@H]1O` showed an EC50 of 8.17 µM.
In the case of `Nc1ncnc2c1c(-c1cc3ccccc3cn1)cn2[C@@H]1O[C@H](CO)[C@@H](O)[C@H]1O`, the EC50 is reported as 14.7 µM.
With `Nc1ncnc2c1c(-c1cccc(Cl)c1)cn2[C@@H]1O[C@H](CO)[C@@H](O)[C@H]1O` the EC50 was 9.9 µM.

Tested on: MRC5
Test: Cytotoxicity against human MRC5 cells assessed as reduction in cell viability after 3 days by resazurin dye-based assay
Conditions: MRC5, 72 h
`Nc1ncnc2c1c(-c1ccc3ccccc3c1)cn2[C@@H]1O[C@H](CO)[C@@H](O)[C@H]1O` showed an EC50 of 7.53 µM.
Work on `Nc1ncnc2c1c(-c1ccc(Cl)c(Cl)c1)cn2[C@@H]1O[C@H](CO)[C@@H](O)[C@H]1O` yielded an EC50 of 14.7 µM.
Compound `Nc1ncnc2c1c(-c1ccc(F)cn1)cn2[C@@H]1O[C@H](CO)[C@@H](O)[C@H]1O` has an EC50 of over 64 µM.
`COc1ccnc(-c2cn([C@@H]3O[C@H](CO)[C@@H](O)[C@H]3O)c3ncnc(N)c23)c1` gave an EC50 of 7.59 µM.
For `Nc1ncnc2c1c(-c1ccc(Cl)cc1)cn2[C@@H]1O[C@H](CO)[C@@H](O)[C@H]1O`, the EC50 was 27 µM.
In the case of `Nc1ncnc2c1c(-c1cc(Cl)cc(Cl)c1)cn2[C@@H]1O[C@H](CO)[C@@H](O)[C@H]1O`, the EC50 is reported as over 64 µM.
With `Nc1ncnc2c1c(-c1cc3ccccc3cn1)cn2[C@@H]1O[C@H](CO)[C@@H](O)[C@H]1O` the EC50 was over 64 µM.
Work on `Nc1ncnc2c1c(-c1cccc(Cl)c1)cn2[C@@H]1O[C@H](CO)[C@@H](O)[C@H]1O` yielded an EC50 of 32.8 µM.
In the case of `O=C(Cn1ccnc1[N+](=O)[O-])NCc1ccccc1` [BENZNIDAZOLE], the EC50 is reported as over 64 µM.

Tested on: Trypanosoma brucei rhodesiense
Test: Antitrypanosomal activity against Trypanosoma brucei rhodesiense STIB-900 after 48 hrs by alamar blue assay
Type: functional, organism-based
Conditions: STIB-900, 48 h
`Nc1ncnc2c1c(-c1ccc3ccccc3c1)cn2[C@@H]1O[C@H](CO)[C@@H](O)[C@H]1O` gave an EC50 of 6.79 µM.
`Nc1ncnc2c1c(-c1ccc(Cl)c(Cl)c1)cn2[C@@H]1O[C@H](CO)[C@@H](O)[C@H]1O` gave an EC50 of 0.32 µM.
Compound `Nc1ncnc2c1c(-c1ccc(F)cn1)cn2[C@@H]1O[C@H](CO)[C@@H](O)[C@H]1O` has an EC50 of 1.69 µM.
With `COc1ccnc(-c2cn([C@@H]3O[C@H](CO)[C@@H](O)[C@H]3O)c3ncnc(N)c23)c1` the EC50 was 8.15 µM.
With `Nc1ncnc2c1c(-c1cc(Cl)cc(Cl)c1)cn2[C@@H]1O[C@H](CO)[C@@H](O)[C@H]1O` the EC50 was 3.66 µM.
`Nc1ncnc2c1c(-c1cc3ccccc3cn1)cn2[C@@H]1O[C@H](CO)[C@@H](O)[C@H]1O` showed an EC50 of 6.16 µM.
In the case of `Nc1ncnc2c1c(-c1cccc(Cl)c1)cn2[C@@H]1O[C@H](CO)[C@@H](O)[C@H]1O`, the EC50 is reported as 6.88 µM.

Tested on: not listed separately
Test: Selectivity index, ratio of EC50 for human MRC5 cells to EC50 for Trypanosoma brucei rhodesiense STIB-900
Type: toxicity
Conditions: read-out: Ratio EC50
`Nc1ncnc2c1c(-c1ccc3ccccc3c1)cn2[C@@H]1O[C@H](CO)[C@@H](O)[C@H]1O` showed a selectivity ratio of 1.2.
`Nc1ncnc2c1c(-c1ccc(Cl)c(Cl)c1)cn2[C@@H]1O[C@H](CO)[C@@H](O)[C@H]1O` showed a selectivity ratio of 46.
`Nc1ncnc2c1c(-c1ccc(F)cn1)cn2[C@@H]1O[C@H](CO)[C@@H](O)[C@H]1O` showed a selectivity ratio of over 38.
Compound `COc1ccnc(-c2cn([C@@H]3O[C@H](CO)[C@@H](O)[C@H]3O)c3ncnc(N)c23)c1` has a selectivity ratio of 0.9.
`Nc1ncnc2c1c(-c1cc(Cl)cc(Cl)c1)cn2[C@@H]1O[C@H](CO)[C@@H](O)[C@H]1O` gave a selectivity ratio of over 17.
`Nc1ncnc2c1c(-c1cc3ccccc3cn1)cn2[C@@H]1O[C@H](CO)[C@@H](O)[C@H]1O` showed a selectivity ratio of over 10.
With `Nc1ncnc2c1c(-c1cccc(Cl)c1)cn2[C@@H]1O[C@H](CO)[C@@H](O)[C@H]1O` the selectivity ratio was 4.8.

Tested on: Trypanosoma cruzi
Test: Antitrypanosomal activity against nifurtimox-sensitive Trypanosoma cruzi Tulahuen CL2 harboring beta-galactosidase infected in human MRC5 cells after 7 days by resazurin dye-based assay
Type: functional, organism-based
Conditions: not given
For `Nc1ncnc2c1c(-c1ccc3ccccc3c1)cn2[C@@H]1O[C@H](CO)[C@@H](O)[C@H]1O`, the Activity was “inactive”.
For `Nc1ncnc2c1c(-c1ccc(F)cn1)cn2[C@@H]1O[C@H](CO)[C@@H](O)[C@H]1O`, the Activity was “inactive”.
For `COc1ccnc(-c2cn([C@@H]3O[C@H](CO)[C@@H](O)[C@H]3O)c3ncnc(N)c23)c1`, the Activity was “inactive”.
For `Nc1ncnc2c1c(-c1cc(Cl)cc(Cl)c1)cn2[C@@H]1O[C@H](CO)[C@@H](O)[C@H]1O`, the Activity was “inactive”.
For `Nc1ncnc2c1c(-c1cc3ccccc3cn1)cn2[C@@H]1O[C@H](CO)[C@@H](O)[C@H]1O`, the Activity was “inactive”.
In the case of `Nc1ncnc2c1c(-c1cccc(Cl)c1)cn2[C@@H]1O[C@H](CO)[C@@H](O)[C@H]1O`, the Activity is reported as “inactive”.

Same assay, conditions: Tulahuen CL2, MRC5, 168 h
`Nc1ncnc2c1c(-c1ccc(Cl)c(Cl)c1)cn2[C@@H]1O[C@H](CO)[C@@H](O)[C@H]1O` gave an EC50 of 0.19 µM.

Tested on: Leishmania infantum
Test: Antileishmanial activity against Leishmania infantum amastigotes infected in Swiss mouse primary peritoneal macrophages assessed as reduction in parasite burden after 5 days by Giemsa staining-based microscopic analysis
Type: functional, organism-based
Conditions: 120 h
`Nc1ncnc2c1c(-c1ccc(Cl)c(Cl)c1)cn2[C@@H]1O[C@H](CO)[C@@H](O)[C@H]1O` showed an EC50 of 1.67 µM.

Tested on: not listed separately
Test: Selectivity index, ratio of EC50 for human MRC5 cells to EC50 for Trypanosoma brucei brucei Squib 427
Type: toxicity
Conditions: read-out: Ratio EC50
`Nc1ncnc2c1c(-c1ccc3ccccc3c1)cn2[C@@H]1O[C@H](CO)[C@@H](O)[C@H]1O` gave a selectivity ratio of 0.96.
`Nc1ncnc2c1c(-c1ccc(Cl)c(Cl)c1)cn2[C@@H]1O[C@H](CO)[C@@H](O)[C@H]1O` showed a selectivity ratio of 4.8.
Compound `Nc1ncnc2c1c(-c1ccc(F)cn1)cn2[C@@H]1O[C@H](CO)[C@@H](O)[C@H]1O` has a selectivity ratio of over 13.
`COc1ccnc(-c2cn([C@@H]3O[C@H](CO)[C@@H](O)[C@H]3O)c3ncnc(N)c23)c1` showed a selectivity ratio of 0.3.
With `Nc1ncnc2c1c(-c1ccc(Cl)cc1)cn2[C@@H]1O[C@H](CO)[C@@H](O)[C@H]1O` the selectivity ratio was 3.6.
With `Nc1ncnc2c1c(-c1cc(Cl)cc(Cl)c1)cn2[C@@H]1O[C@H](CO)[C@@H](O)[C@H]1O` the selectivity ratio was over 7.8.
Work on `Nc1ncnc2c1c(-c1cc3ccccc3cn1)cn2[C@@H]1O[C@H](CO)[C@@H](O)[C@H]1O` yielded a selectivity ratio of over 4.4.
For `Nc1ncnc2c1c(-c1cccc(Cl)c1)cn2[C@@H]1O[C@H](CO)[C@@H](O)[C@H]1O`, the selectivity ratio was 3.3.

Tested on: Peritoneal macrophage
Test: Cytotoxicity against Swiss mouse primary peritoneal macrophages assessed as reduction in cell viability after 5 days
Type: cell-based
Conditions: Mus musculus, Swiss, Peritoneal macrophage, 120 h
With `Nc1ncnc2c1c(-c1ccc(Cl)c(Cl)c1)cn2[C@@H]1O[C@H](CO)[C@@H](O)[C@H]1O` the EC50 was 20 µM.

Tested on: not listed separately
Test: Selectivity index, ratio of EC50 for human MRC5 cells to EC50 for nifurtimox-sensitive Trypanosoma cruzi Tulahuen CL2 harboring beta-galactosidase
Type: toxicity
Conditions: read-out: Ratio EC50
`Nc1ncnc2c1c(-c1ccc(Cl)c(Cl)c1)cn2[C@@H]1O[C@H](CO)[C@@H](O)[C@H]1O` gave a selectivity ratio of 77.4.
Work on `Nc1ncnc2c1c(-c1ccc(Cl)cc1)cn2[C@@H]1O[C@H](CO)[C@@H](O)[C@H]1O` yielded a selectivity ratio of 57.4.
`O=C(Cn1ccnc1[N+](=O)[O-])NCc1ccccc1` [BENZNIDAZOLE] showed a selectivity ratio of over 23.

Tested on: Trypanosoma cruzi
Test: Potency index, ratio of EC50 for benznidazole to EC50 for test compound for antitrypanosomal activity against nifurtimox-sensitive Trypanosoma cruzi Tulahuen CL2 harboring beta-galactosidase infected in human MRC5 cells after 7 days by resazurin dye-based assay
Type: functional
Conditions: not given
In the case of `Nc1ncnc2c1c(-c1ccc(Cl)c(Cl)c1)cn2[C@@H]1O[C@H](CO)[C@@H](O)[C@H]1O`, the “Ratio EC50” value is reported as “<=10”.
In the case of `Nc1ncnc2c1c(-c1ccc(Cl)cc1)cn2[C@@H]1O[C@H](CO)[C@@H](O)[C@H]1O`, the “Ratio EC50” value is reported as “<=10”.
